Assay results from US12239729B2, “TRPV3 agonists for the treatment of skin conditions” (Soricimed Biopharma Inc., priority 2012, dated 2025).
Entries after “also recorded” stand apart in the source; their conditions may differ. Peptide text beside a SMILES is read from it.

Tests used:
HaCaT cells [1] = test: Cell death assay in HaCaT cells with SOR-C13 fragments (Example 5); type: cell-based, human; settings: 100 and 1000 μM tested, 72 hours
Protocol: Solutions of each of the peptides listed in Table 2 were made based on formulation weight without correction of purity in PBS at a 100 mM stock concentration. Stock solutions were sterilized by passing through a 0.2 μm syringe filter prewashed with PBS. Stocks of peptides were kept in aliquots at −20° C. during the study. Glycolic acid was made in a 5M stock in PBS and filtered using a 0.2 μm syringe filter and kept at −20° C.
Human immortalized keratinocyte HaCaT cells were cultured as described in Example 3.
HaCaT cells were plated at ˜8×10^5/well in each well of the 12-well tissue culture plates in triplicates in 2 ml culture media. Twenty-four (24) hours post-plating, cells were treated with PBS, or peptide stocks at 100 and 1000 μM (in triplicates), or glycolic acid at 20 mM (single data point). The Cell Death Assay was otherwise performed as described in Example 3.

HaCaT cells [2] = test: Wound healing (scratch gap closure) assay in HaCaT cells (Example 4); type: cell-based, human; settings: for Migration Score (gap closure activity): HaCaT wound model
Protocol: SOR-C13 and SOR-C27 were tested for their ability to promote tissue repair in a human keratinocytes (HaCaT) model of wound healing. In this model, cells are grown to confluency and then a gap is made in the sheet of cells by scratching the surface of the cells. After treating the cells for 24 hours, the closure of the gap, and the state of the cells in terms of polarization and mobility into the gap, are measured as a surrogate for activation of the wound healing response and the proliferation and/or migration of cells involved in tissue repair.
HaCaT cells were plated at 4×10^5 per well in 12-well tissue culture plates in MEGM Bullet Kit (Lonza, Cat. #CC-3150) containing bovine pituitary extracts (BPE), hEGF, insulin, and hydrocortisone. The total volume was 2 ml. About 24 hours later, a gap at the bottom of each well was generated by scratching with a sterile pipette tip. The supernatant was aspirated and cells were washed gently once with PBS. Fresh media (MEGM Bullet Kit, 2 ml) was added after the wash. Cells were treated in duplicates with PBS, or SOR-C13 at 10, 100 and 1000 μM, or SOR-C27 at 10, 100 and 1000 μM, and 100 μM valproic acid. After 24 hours, each well was examined under the microscope to semi-quantify the gap closure by cell migration. A digital camera fixed to the microscope was used to capture images of cells.
Under visual inspection, the wound healing results was scored as: • “−”: minimal cell polarization toward wound, no initiation of cell protrusion into the gap; no change in the wound gap; • “+”: cell polarization toward wound was observed; cell protrusion was observed; cell migration started but gap size is between 75 to 100% of original wound gap; • “++”: cell polarization toward the wound was observed; cell protrusion was observed; cell migration across the gap was observed, and gap size ≤½ of original wound gap; • “+++”: cell polarization toward wound was observed; cell protrusion was observed; cell migration across the gap was observed, and gap size ≤⅓ of original wound gap. Results

With CC(C)C[C@H](NC(=O)[C@H](Cc1ccccc1)NC(=O)[C@H](CCC(=O)O)NC(=O)[C@@H](N)CCCCN)C(=O)N[C@@H](Cc1cnc[nH]1)C(=O)N1CCC[C@H]1C(=O)N[C@@H](CO)C(=O)N[C@@H](CCCCN)C(=O)N[C@H](C(=O)N[C@@H](CC(=O)O)C(=O)N[C@@H](CC(C)C)C(=O)N1CCC[C@H]1C(=O)N[C@@H](CCCNC(=N)N)C(=O)O)C(C)C [SOR-C13, KEFLHPSKVDLPR] (H-KEFLHPSKVDLPR-OH) the “induction of cell death (words)” value (HaCaT cells [1]) was “no significant effect to induce cell death; also recorded: no increase in cell death above the PBS treatment”, the “effect on migration of HaCaT cells through the scratch (words)” value (shortened to “effect on migration … (words)”) (HaCaT cells [2]; 10 μM, 24 hours) was “little difference compared to PBS treatment” and the “Migration Score (gap closure activity)” value (HaCaT cells [2]; 10 uM, 24 hours) was “+ (cell polarization toward wound was observed; cell protrusion was observed; cell migration started but gap size is between 75 to 100% of original wound gap)”. The “effect on migration … (words)” value (HaCaT cells [2]; 100 μM, 24 hours) was “clearly had an effect to induce cell migration”, the “Migration Score (gap closure activity)” value (HaCaT cells [2]; 100 uM, 24 hours) was “++ (cell polarization toward the wound was observed; cell protrusion was observed; cell migration across the gap was observed, and gap size ≤½ of original wound gap)” and the “effect on migration … (words)” value (HaCaT cells [2]; 1000 μM, 24 hours) was “dramatically closed”. The “Migration Score (gap closure activity)” value (HaCaT cells [2]; 1000 uM, 24 hours) was “+++ (cell polarization toward wound was observed; cell protrusion was observed; cell migration across the gap was observed, and gap size ≤⅓ of original wound gap)”, the “effect on migration of HaCaT cells over the tested concentrations” value (HaCaT cells [2]; 10, 100, 1000 μM, 24 hours) was “promote tissue repair in a dose responsive manner; also recorded: dose-dependent effect on promoting the migration; also recorded: induced migration of HaCaT cells in a dose-dependent manner” and the “concentrations at which wound healing of HaCaT cells was promoted” value (HaCaT cells [2]; 24-hour incubation) was at least 100 µM.
